Patent US10064843B2, “Bis-amide derivative and use thereof” (University-Industry Cooperation Group of Kyung Hee …, priority 2013, dated 2018)

How the values were obtained:
[1] = Toxicity in BALB/c mice
Experimental: The experimental animals were divided into three groups (n=5) and one of the groups was used as the untreated control group. […] Fourteen days after the administration, blood samples were collected from the treat groups and the control group, respectively. The weight of experimental mice was measured for the evaluation of systemic toxicity in mice. For the confirmation of hepatotoxicity, the AST and ALT activities were measured according to the manufacturer's protocols applied to a 96-well microplate using the GOT-GPT kit (Asan Pharm, Korea). The analysis results regarding the AST and ALT activities were shown in IU/L units. For the confirmation of nephrotoxicity, the blood urea nitrogen (BUN) was measured using the Blood Urea Nitrogen Enzymatic Assay kit (Bioo Scientific, Austin, Tex., USA), and the creatine level in the serum was measured using the Mouse Creatine Assay kit (Crystal Chem, Inc., Downers Grove, Ill., USA).

[2] = target: T1, CypA (Homo sapiens, UniProt P62937); assay: SPR binding of WJCPA-126 or CsA to CypA
T1 construct: GST (N, cleaved yes); made in house; host or cells: E. coli (pGEX-KG)
Experimental: Example 4: Molecular Docking Analysis by Surface Plasmon Resonance (SPR)
CypA protein was fixed on the sensor chip surface via free amine coupling by injecting a mixture of 0.1 M 1-ethyl-3-(3-dimethylaminopropyl) carboimidehydrochloride and 0.05 M N-hydroxysuccinimide thereon, and the extra activated carboxylic acid was inhibited using 1M ethanolamine (pH 8.5). The second reference cell was treated similarly while excluding the target protein. All working peptide dilutions were prepared in running buffer (PBS containing 0.2% DMSO) and injected at a rate of 30 μL/min for 3 minutes (association time) and dissociation phase was performed for 3 minutes. Nonspecific background was substracted from each sensogram using SPR_V4017 data collection and alignment program (Reichert, Depew, N.Y.). […] Optimum kinetic parameters were obtained by global fitting analysis using Scrubber2 (Biologic Software, Australia).

[3] = tested on: HCV replicon cells; assay: Western blot of NS5A and NS5B in HCV replicon cells (total lysate, membrane fraction); assay type: cell-based, hepatitis C virus
Experimental: Example 10: Preparation of a Membrane Fraction
Cells grown to about 80% confluence in a culture dish with a diameter of 10 cm were scraped using PBS. The cells were pelleted by centrifugation at 220 g for 10 minutes. The pellet was resuspended in 1 mL hypotonic buffer (10 mM Tris-HCL pH 7.5, 10 mM KCL, 1.5 mM MgCl2, 0.5 mM PMSF (phenylmethylsulfonyl fluoride), and 2 μg/mL leupeptin), and incubated at 4° C. for 10 minutes. The suspension was homogenized using 75 strokes of a glass dounce homogenizer using a tight-fitting pestle (Sigma, St. Louis, Mo., USA). Nuclei and undestroyed cells were removed by centrifugation at 220 g for 10 minutes at 4° C. The cell membrane in the thus-obtained supernatant was directly centrifuged at 68,000 g for 1 hour at 4° C. using an ultracentrifuge tube in a micro-ultracentrifuge (Hitachi, Japan). Upon centrifugation, the coarse replication complex fraction was recovered from the pellet and used for western blot analysis.
Example 14: Western Blot Analysis
Cell extracts were separated by SDS-PAGE and then transferred to a nitrocellulose membrane. After blocking, the membrane was incubated with indicated primary antibody and subsequently incubated with secondary antibody. The samples were detected with enhanced chemiluminescence reagents (Santa Cruz, Calif., USA).

[4] = tested on: STAT1, STAT2, IRF9, OAS1, and ISG15; assay: Real-time qRT-PCR of interferon-stimulated genes in HCV replicon cell; assay type: cell-based, human; conditions: 2 μM; FIG. 14
Experimental: (§1) Example 19: Real-Time Quantitative Reverse Transcriptase PCR Analysis
(§2) Real-time quantitative reverse transcriptase PCR (qRT-PCR) was performed using SYBR Green PCR Master Mix (Invitrogen/Applied Biosystem, Carlsbad, Calif., USA) and ABI Prism 7300 Real-time PCR System (Applied Biosystems, Carlsbad, Calif., USA) according to the manufacturer's instructions. Calculations were performed based on […] method using the following equation: R (ratio)=2-[ΔCT (sample)-ΔCT (control group)]. The data were expressed as fold change of the treated group relative to the control group and standardized relative to the glyceraldehyde 3-phosphate dehydrogenase (GAPDH) level.

[5] = tested on: IFN-α; assay: IFN-α mRNA and IFN-α ELISA in HCV replicon cell; assay type: cell-based, human
Experimental: Example 11: Determination of IL-8 and INF-α Concentrations in Cell Culture Media by ELISA
Upon incubation, the cell culture media were collected and the IL-8 and IFN-α concentrations were analyzed according to the protocol of eBioscience (San Diego, Calif., USA) by ELISA.
as §1, §2

[6] = tested on: HCV replicon cells; assay: Luciferase activity in HCV replicon cells; assay type: cell-based; conditions: Hepatitis C virus, 72 h, read-out: inhibition of luciferase activity of HCV
Experimental: Additionally, a series of compounds (WJCPA-1 to WJCPA-135) having the bis-amide structure as a parent structure in common, based on the inhibitory effect of WJCPA-126 against the PPIase activity, were synthesized and their activities were confirmed. Specifically, Huh7-rep cells were treated with each of the compounds at a concentration of 2 μM for 3 days, and the expression level of NS5A was confirmed by performing an immunoblot analysis according to a known method (FIG. 5). The 32 kinds of compounds confirmed to have excellent inhibitory effect especially against the NS5A expression from the immunoblot experiment were measured regarding their inhibitory effect against luciferase activity and the results are illustrated in FIG. 6. In the same manner as in western blot, the HCV replicon cells were treated with each of the compounds at a concentration of 2 μM and incubated for 72 hours, and the total cell lysate of the cultured cells were used for the analyses of western blot and the activity of luciferase.

[7] = target: T2, CypB (Homo sapiens, UniProt P23284); assay: SPR binding of WJCPA-126 to CypB; conditions: SPR-based kinetic analysis
T2 construct: GST (N); made in house; host or cells: E. coli (pGEX-KG)
T2 sequence (P23284 34-216, species assumed): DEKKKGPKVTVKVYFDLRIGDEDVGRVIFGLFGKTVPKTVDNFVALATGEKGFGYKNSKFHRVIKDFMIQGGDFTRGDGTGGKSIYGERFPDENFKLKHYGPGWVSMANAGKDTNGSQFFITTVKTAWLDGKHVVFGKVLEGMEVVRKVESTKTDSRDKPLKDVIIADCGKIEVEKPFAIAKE

T1 sequence (P62937 whole entry): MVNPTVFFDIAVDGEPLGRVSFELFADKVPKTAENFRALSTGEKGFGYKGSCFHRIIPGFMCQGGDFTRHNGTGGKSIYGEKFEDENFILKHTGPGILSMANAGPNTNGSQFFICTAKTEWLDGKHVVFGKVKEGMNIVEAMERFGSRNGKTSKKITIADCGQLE

**Q.** With `COc1cc(C(C(=O)NC2CCCCC2)N(C(=O)Cc2c[nH]c3ccccc23)c2ccc(C(C)C)cc2)cc(OC)c1OC` (stereo not drawn) [WJCPA-126, N-cyclohexyl-2-[(2-1H-indol-3-yl-acetyl)-(4-isopropyl-phenyl)-amino]-2-(3,4,5-trimethoxy-phenyl)-acetamide] as the molecule, how does the “serum ALT and AST” value ([1]; 50 mg/kg for 2 weeks, FIG. 17b, 17c) read?
**A.** No difference was observed

**Q.** What about the “safety parameters (body weight, serum ALT, AST, BUN, creatinine)” value ([1]; 50 mg/kg intraperitoneally daily, 14 days, FIG. 17) of the same molecule?
**A.** did not induce any noticeable change on safety parameters

**Q.** And the “Koff (dissociation rate)” value ([2]; SPR)?
**A.** 6.0×10^−4 S^−1

**Q.** What about the Kon ([2]; SPR) of the same molecule?
**A.** 8.2×10^3 M^−1 S^−1

**Q.** And the Kd ([2]; SPR-based kinetic analysis, CypA)?
**A.** 0.52 µM

**Q.** What about the “levels of NS5A and NS5B proteins” value ([3]; 0.5 μM to 4 μM, FIG. 10a) of the same molecule?
**A.** decrease in the levels of NS5A and NS5B proteins in a dose-dependent manner

**Q.** What about the “NS5A and NS5B protein levels in total lysate and membrane fraction” value ([3]; 2 μM, HCV Con1b replicon cells, FIG. 10b) of the same molecule?
**A.** decrease the protein levels of NS5A and NS5B in both the total lysate and the membrane fraction

**Q.** And the “mRNA expression levels of STAT1, STAT2, IRF9, OAS1, and ISG15” value [4]?
**A.** increase the mRNA expression levels of STAT1, STAT2, IRF9, OAS1, and ISG15 in a time-dependent manner

**Q.** And the “mRNA level of IFN-α” value ([5]; 48 hours after the treatment, FIG. 15d)?
**A.** cannot control the mRNA level of IFN-α

**Q.** And the “IFN-α production (ELISA)” value ([5]; FIG. 15e)?
**A.** significantly increase the IFN-α production

**Q.** What about the inhibition at 2 µM [6] of the same molecule?
**A.** ≤ 80%

**Q.** And the Kd [7]?
**A.** 2.1 µM
